ChEMBL document CHEMBL1157539, “Thousands of chemical starting points for antimalarial lead identification” (Nature, 2010)

These molecules were tested on Plasmodium falciparum (assay: GSK_TCMDC: Inhibition of Plasmodium falciparum 3D7 in whole erythrocytes, using parasite LDH activity as an index of growth.). Details: Plasmodium falciparum, 3D7.
Type: functional, organism-based
`CN1CCC(N2CCN(c3ccc4c(=O)nc(CCc5cccc(F)c5F)n(CC(=O)N(C)Cc5ccc(-c6ccc(C(F)(F)F)cc6)cc5)c4n3)CC2)CC1` gave an XC50 of 717 nM.
`CCN(CC)CCN(Cc1ccc(-c2ccc(C(F)(F)F)cc2)cc1)C(=O)Cn1c(SCc2ccc(F)c(F)c2F)nc(=O)c2c1CCC2` was tested, and the XC50 was 1020 nM.
With `Oc1cc(NCc2ccccc2NCc2ccc(Cl)c(Cl)c2)nc2ccccc12` the XC50 was 842 nM.
`Oc1ccc(CCNc2nc(NCCCOc3ccccc3-c3ccc(F)cc3)nc(N3CCNCC3)n2)cc1` showed an XC50 of 1080 nM.
In the case of `O=C(Nc1ccccc1)N(Cc1cccc(-c2cccc(CNCc3ccc4c(c3)OCO4)c2)c1)C1CCN(Cc2ccccc2)CC1`, the XC50 was 281 nM.
`O=c1sn(-c2csc3ccccc23)c2ccccc12` gave an XC50 of 339 nM.
In the case of `COCCNCC(O)Cn1c2ccc(Cl)cc2c2cc(Cl)ccc21` (configuration not stated), the XC50 was 52 nM.
`Cc1cccc2nc(-c3ccc(-c4cccc(CN5CCN(c6ccncc6)CC5)c4)cc3)[nH]c12` was tested, and the XC50 was 117 nM.
With `CCCc1ccc(-c2csc(NC(=O)c3ccc([N+](=O)[O-])o3)n2)cc1` the XC50 was 1210 nM.
Work on `COc1ccc2nccc([C@@H](O)CN3CCC(NCc4cc5c(Cl)cc(Cl)cc5[nH]4)CC3)c2c1` yielded an XC50 of 58.5 nM.
`COc1cc2c(cc1S(=O)(=O)c1ccc(NC(=O)c3cccc(C(F)(F)F)c3)cc1)CCN(C)CC2` was tested, and the XC50 was 1380 nM.
In the case of `O=c1[nH]nc(-c2ccc(N3CCCC3)c([N+](=O)[O-])c2)c2ccccc12`, the XC50 was 631 nM.
`CCN1CCN(CCCNc2c3ccccc3nc3ccccc23)CC1` was tested, and the XC50 was 798 nM.
In the case of `Cc1cc(N)c2cc(NC(=O)/C=C/c3ccc([N+](=O)[O-])cc3)ccc2n1`, the XC50 was 669 nM.
`Cc1cccc(C(=O)Nc2ccnc(N3CCC(N(C)Cc4ccccc4)CC3)c2)c1` was tested, and the XC50 was 962 nM.
In the case of `Cc1cccc2nc(-c3ccc(-c4ccc(CNCCNC(=O)c5ccnn5C)cc4)s3)[nH]c12`, the XC50 was 308 nM.
`CCCCCN1CCCN(Cc2cccc(NC(=O)c3cc4ccccc4s3)c2)CC1` showed an XC50 of 594 nM.
Work on `CC1CN(c2cnn(Cc3ccc(NC(=O)Nc4ccc(-c5ccccc5)cc4)cc3)c(=O)c2Cl)CC(C)N1` (configuration not stated) yielded an XC50 of 367 nM.
Molecule `O=C(Nc1ccc(CN2CCN(S(=O)(=O)c3cccc(Cl)c3)CC2)cc1)c1cccs1` has an XC50 of 1080 nM.
For `CN1CCN(CCCN(Cc2ccc(-c3ccc(CNCc4ccc5c(c4)OCO5)cc3)cc2)C(=O)CCC2CCCC2)CC1`, the XC50 was 952 nM.
`Nc1nc(N)c2cc(N(Cc3ccccc3)Cc3ccccc3)ccc2n1` showed an XC50 of 612 nM.
For `COc1ccc(NC(=O)c2cccc(Br)c2)cc1N1CCN(CCCCCCCN2CCN(c3cc(NC(=O)c4cccc(Br)c4)ccc3OC)CC2)CC1`, the XC50 was 184 nM.
With `CCOc1cc(C(=O)Nc2ccc3nc(N4CCN(C)CC4)cc(C)c3c2)cc(OCC)c1OCC` the XC50 was 847 nM.
In the case of `COc1ccc(CNC(=O)c2cnc3c(O)cccc3c2Nc2cccc(NC(=O)c3ccc(Cl)c([N+](=O)[O-])c3)c2)cc1`, the XC50 was 945 nM.
`CCCCNCc1ccc(-c2nc(CN(Cc3ccc(Cl)c(Cl)c3)S(=O)(=O)c3ccc(NC(C)=O)cc3)cs2)cc1` showed an XC50 of 1030 nM.
With `CN(C)c1ccc(C=Cc2nc(=O)c3ccccc3o2)cc1` the XC50 was 44.6 nM.
`CC(C)c1sc(N2CCN(C)CC2)nc1C(=O)Nc1cccc2c1CCCC2` gave an XC50 of 1280 nM.
`Cc1cc(N[C@@H](Cc2ccccc2)C(=O)NCc2cccc(F)c2)nc(NCCOc2ccccc2)n1` showed an XC50 of 786 nM.
`CC(=O)N1N=C(c2ccc(F)cc2)Sc2c1nc(-c1ccccc1)n2C(C)=O` gave an XC50 of 651 nM.
In the case of `Nc1cccc(CNCc2ccc(-c3ccc(-c4nc5ccccc5[nH]4)s3)cc2)c1`, the XC50 was 574 nM.
Work on `CCOc1cc(NC(=O)Nc2ccnc3ccccc23)cc(OC)c1` yielded an XC50 of 866 nM.
In the case of `O=C(/C=C/c1ccc(Cl)cc1Cl)NC1CCC(CN2CCC(c3c[nH]c4ccccc34)CC2)CC1` (configuration not stated), the XC50 was 798 nM.
For `O=C(NC1CCCCN(Cc2ccccc2O)C1)c1cc(F)cc(F)c1` (configuration not stated), the XC50 was 1170 nM.
`CN(C)CCCNCc1ccc(-c2ccc(CNCCc3ccccc3)cc2)cc1` was tested, and the XC50 was 994 nM.
For `O=C(/C=C/c1ccc(Cl)c(Cl)c1)NCCCCCN1CCCN(C(=S)Nc2ccc(Cl)c(Cl)c2)CC1`, the XC50 was 869 nM.
With `CCCCCCn1c(Sc2ccc(C#N)c([N+](=O)[O-])c2)nnc1-c1cccc(Cl)c1` the XC50 was 609 nM.
Work on `CCOC(=O)c1ccc(NC(=O)Nc2ccc(-c3cccc(-c4nc5cccc(C)c5[nH]4)c3)cc2)cc1` yielded an XC50 of 145 nM.
